Article PMC7493219 (Journal of Crohn's & Colitis, 2020)
Where two headings read alike, the source gives them in different places. One block for each compound: values may come before it.

What was measured:
[1] = molecular target: human recombinant TYK2 (Homo sapiens, UniProt P29597); test: LanthaScreen kinase assay; format: biochemical
[2] = Phase 1b study, safety and tolerability in UC patients; format: in vivo, human; settings: 20, 80, 270 mg QD 28 days
[3] = test system: GM-CSF-induced pSTAT5 in THP-1 cells; test: THP-1 GM-CSF/pSTAT5 assay; format: cell-based; settings: Homo sapiens, THP-1, read-out: Mean ± SD inhibitory potency [pIC50], GM-CSF/pSTAT5 (converted)
[4] = test system: moderately to severely active UC; test: Phase 1b study, efficacy assessments; format: in vivo, human; settings: after the 28-day treatment, all doses
[5] = test system: pSTAT3 in colonic mucosa; test: Target engagement in the oxazolone colitis model; format: in vivo, Balb/C mice; settings: oral 30 mg/kg BID; for T cell infiltration into the colonic mucosa: oxazolone-treated mice
[6] = test system: IL-13-induced pSTAT6 in HT-29 cells; test: HT-29 IL-13/pSTAT6 assay; format: cell-based; settings: Homo sapiens, HT-29, read-out: Mean ± SD inhibitory potency [pIC50], IL-13/pSTAT6 (converted)
[7] = molecular target: mouse recombinant JAK1 (Mus musculus, UniProt P52332); test: LanthaScreen kinase assay; format: biochemical
Chain of mouse recombinant JAK1 (P52332 whole entry): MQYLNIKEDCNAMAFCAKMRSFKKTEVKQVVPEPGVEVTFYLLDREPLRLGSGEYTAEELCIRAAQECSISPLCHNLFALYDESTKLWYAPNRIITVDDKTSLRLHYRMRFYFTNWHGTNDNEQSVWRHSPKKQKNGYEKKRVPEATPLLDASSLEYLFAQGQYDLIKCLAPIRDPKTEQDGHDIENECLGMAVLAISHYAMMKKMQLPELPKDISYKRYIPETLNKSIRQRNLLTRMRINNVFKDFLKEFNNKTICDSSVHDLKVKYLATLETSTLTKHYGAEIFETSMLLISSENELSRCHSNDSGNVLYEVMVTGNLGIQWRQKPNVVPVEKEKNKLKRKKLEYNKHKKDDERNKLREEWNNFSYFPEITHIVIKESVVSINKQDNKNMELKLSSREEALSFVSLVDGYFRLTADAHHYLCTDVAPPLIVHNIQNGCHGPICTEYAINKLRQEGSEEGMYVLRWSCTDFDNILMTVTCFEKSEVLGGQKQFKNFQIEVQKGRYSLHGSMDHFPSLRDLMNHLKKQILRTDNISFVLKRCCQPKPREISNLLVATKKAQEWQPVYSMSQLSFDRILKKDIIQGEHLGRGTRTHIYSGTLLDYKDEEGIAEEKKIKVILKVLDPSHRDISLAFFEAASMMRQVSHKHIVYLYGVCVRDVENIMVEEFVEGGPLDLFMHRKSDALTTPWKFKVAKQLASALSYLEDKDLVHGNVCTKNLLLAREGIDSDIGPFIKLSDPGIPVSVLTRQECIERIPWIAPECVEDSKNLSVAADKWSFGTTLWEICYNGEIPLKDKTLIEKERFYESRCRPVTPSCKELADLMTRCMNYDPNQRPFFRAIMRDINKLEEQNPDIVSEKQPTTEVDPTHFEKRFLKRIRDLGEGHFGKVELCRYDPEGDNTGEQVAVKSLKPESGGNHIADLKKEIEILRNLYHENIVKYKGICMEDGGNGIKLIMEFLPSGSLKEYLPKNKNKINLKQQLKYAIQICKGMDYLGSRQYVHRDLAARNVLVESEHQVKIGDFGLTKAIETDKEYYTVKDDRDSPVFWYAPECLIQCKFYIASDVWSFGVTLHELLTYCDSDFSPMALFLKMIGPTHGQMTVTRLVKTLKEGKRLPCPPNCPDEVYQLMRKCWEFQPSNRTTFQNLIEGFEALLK

[8] = test system: IL-6-induced pSTAT1 in Balb/C mouse primary colonic epithelial cells; test: Mouse colonic epithelial cell IL-6/pSTAT1 assay; format: cell-based; settings: from Table 1 pIC50
[9] = test system: oxazolone-induced colitis; test: Oxazolone-induced colitis model; format: in vivo, Balb/C mice; settings: for effects of oxazolone (DAI and subscores): highest dose tested, 30 mg/kg
[10] = test system: splenic NK, T and B cells; test: Splenocyte studies; format: in vivo, Balb/C mice; settings: 3 days
[11] = test system: IL-4-induced pSTAT6 in THP-1 cells; test: THP-1 IL-4/pSTAT6 assay; format: cell-based; settings: Homo sapiens, THP-1, read-out: Mean ± SD inhibitory potency [pIC50], IL-4/pSTAT6 (converted)
[12] = FTIH SAD/MAD study, safety and tolerability in healthy subjects; format: in vivo, human; settings: single dose up to 1000 mg, daily doses up to 300 mg for 14 days
[13] = test system: IL-13-potentiated IL-8 production in HT-29 cells; test: HT-29 IL-13/IL-8 assay; format: cell-based; settings: Homo sapiens, HT-29, read-out: Mean ± SD inhibitory potency [pIC50], IL-13/IL-8 (converted)
[14] = test system: GM-CSF-induced pSTAT5 in human whole blood; test: Human whole blood GM-CSF/pSTAT5 assay; format: cell-based; settings: read-out: Mean ± SD inhibitory potency [pIC50], GM-CSF/pSTAT5 (converted)
[15] = test system: IL-6-induced pSTAT3 in THP-1 cells; test: THP-1 IL-6/pSTAT3 assay; format: cell-based; settings: Homo sapiens, THP-1, read-out: Mean ± SD inhibitory potency [pIC50], IL-6/pSTAT3 (converted)
[16] = clinical; settings: human, in vivo
[17] = Oral pharmacokinetics in mice; settings: for concentration at 24 h / Cmax: male, Balb/C, mouse, in vivo, 10 mg/kg; for Cmax: po

Chain of human recombinant TYK2 (P29597 whole entry): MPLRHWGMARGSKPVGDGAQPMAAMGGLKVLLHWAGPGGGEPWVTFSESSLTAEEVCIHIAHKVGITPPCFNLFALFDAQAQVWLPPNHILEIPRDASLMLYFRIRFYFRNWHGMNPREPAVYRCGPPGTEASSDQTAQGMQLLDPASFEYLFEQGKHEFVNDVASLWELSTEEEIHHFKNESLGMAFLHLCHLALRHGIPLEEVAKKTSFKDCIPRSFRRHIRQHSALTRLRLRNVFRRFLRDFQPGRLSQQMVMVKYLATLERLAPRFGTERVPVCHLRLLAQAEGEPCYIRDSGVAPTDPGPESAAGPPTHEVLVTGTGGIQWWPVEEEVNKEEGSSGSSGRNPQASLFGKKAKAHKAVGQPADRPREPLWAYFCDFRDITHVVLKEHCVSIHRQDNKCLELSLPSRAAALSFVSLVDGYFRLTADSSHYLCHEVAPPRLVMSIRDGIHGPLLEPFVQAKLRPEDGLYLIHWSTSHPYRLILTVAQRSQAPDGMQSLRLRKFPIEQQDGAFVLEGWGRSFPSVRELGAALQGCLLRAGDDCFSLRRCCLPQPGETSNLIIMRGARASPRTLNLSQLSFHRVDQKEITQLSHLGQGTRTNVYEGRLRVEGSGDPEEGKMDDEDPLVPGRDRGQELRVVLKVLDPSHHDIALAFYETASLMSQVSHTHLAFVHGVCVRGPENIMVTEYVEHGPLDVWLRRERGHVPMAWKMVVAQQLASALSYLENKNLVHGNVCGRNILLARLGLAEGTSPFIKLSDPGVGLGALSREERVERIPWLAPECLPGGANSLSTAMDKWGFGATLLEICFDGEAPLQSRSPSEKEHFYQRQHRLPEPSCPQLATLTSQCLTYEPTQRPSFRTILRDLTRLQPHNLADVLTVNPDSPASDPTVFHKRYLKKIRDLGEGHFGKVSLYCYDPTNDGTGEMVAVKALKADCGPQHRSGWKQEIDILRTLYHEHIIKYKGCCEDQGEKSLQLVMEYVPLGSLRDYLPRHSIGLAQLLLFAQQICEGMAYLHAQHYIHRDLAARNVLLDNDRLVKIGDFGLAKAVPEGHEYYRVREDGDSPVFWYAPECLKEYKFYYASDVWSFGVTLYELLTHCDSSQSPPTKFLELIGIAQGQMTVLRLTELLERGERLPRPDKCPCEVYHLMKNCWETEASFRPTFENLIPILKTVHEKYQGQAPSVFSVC

Structure (SMILES): Cc1cc(Nc2cc3ncccc3c(N[C@@H]3C[C@H]4CC[C@@H](C3)N4CCC#N)n2)n[nH]1 [TD-1473]
stronger potency for TYK2 compared with tofacitinib [1]: approximately 40 fold
colonic tissue concentration, geometric mean [95% CI] (20 mg QD, day 28): 4090 [2270–7380] pg/g
geometric mean colonic tissue concentration [average of sigmoid and rectum] (20 mg QD, day 28): 4090 pg/mL
patients with plasma trough concentration BLQ (20 mg, day 14): 4/9
geometric mean colonic tissue concentration [average of sigmoid and rectum] (80 mg QD, day 28): 65 300 pg/mL
geometric mean trough concentration as % of Cmax (80 mg, day 14): 3.57%
geometric mean colonic tissue concentration [average of sigmoid and rectum] (270 mg QD, day 28): 43 500 pg/mL
geometric mean trough concentration as % of Cmax (270 mg, day 14): 5.79%
TEAE incidence, TD-1473 treatment arms overall [2]: 38.7%
laboratory parameters (haematological, renal, hepatic, creatinine phosphokinase, lipid) [2]: did not adversely affect
tolerability [2]: generally well tolerated
IC50 [3]: 100 nM
clinical remission [4]: No patient achieved clinical remission
T cell infiltration into the colonic mucosa ([5]; 30 mg/kg): preventing T cell infiltration
pSTAT3 levels in colonic mucosa of oxazolone-treated mice vs vehicle ([5]; 30 mg/kg): significantly inhibited
IC50 [6]: 79.4 nM
Ki [7]: 0.0631 nM
mouse colonic epithelial IL-6/pSTAT1 IC50 [8]: 0.020 µg/g
effects of oxazolone (DAI and subscores) [9]: did not significantly attenuate
oxazolone-induced elevated DAI, reduction in body weight and stool consistency, increase in stool blood content ([9]; oral 0.3–10 mg/kg BID): attenuated
numbers of splenic NK, B or T cells vs vehicle ([10]; oral 1, 10 and 100 mg/kg BID): did not affect
IC50 [11]: 31.6 nM
tolerability [12]: generally well tolerated
IC50 [13]: 79.4 nM
IC50 [14]: 200 nM
IC50 [15]: 50.1 nM
Tmax [16]: ~1 h
concentration at 24 h [17]: < 0.25 nM
Cmax ([17]; colon, 10 mg/kg oral): 3690 ng/g
Cmax ([17]; plasma, 10 mg/kg oral): 1.4 ng/mL

splenic T and B cell numbers ([10]; oral 10, 15 and 30 mg/kg TID): did not affect
colonic level 24 h postdose (BLQ) ([17]; 10 mg/kg oral): < 0.00025 µM
concentration at 24 h [17]: < 0.25 nM
Cmax ([17]; colon, 10 mg/kg oral): 2570 ng/mL
Cmax ([17]; plasma, 10 mg/kg oral): 193 ng/mL
Structure (SMILES): C[C@@H]1CCN(C(=O)CC#N)C[C@@H]1N(C)c1ncnc2[nH]ccc12 [tofacitinib, reference compound]
T cell infiltration into the colonic mucosa [5]: preventing T cell infiltration
pSTAT3 levels in colonic mucosa of oxazolone-treated mice vs vehicle ([5]; 30 mg/kg): significantly inhibited
effects of oxazolone (DAI and subscores) [9]: did not significantly attenuate
oxazolone-induced elevated DAI, reduction in body weight and stool consistency, increase in stool blood content ([9]; oral 10 and 15 mg/kg TID): attenuated
